# According to US8883782B2, “Spiro-tetracyclic ring compounds as beta-secretase modulators and methods of use” (Amgen Inc., priority 2010, dated 2014):
# Read-outs that look alike come from different tables or passages of the source.
# Legend:
# [1] = target: Beta Secretase enzyme (BACE) (Homo sapiens, UniProt P56817); assay: In vitro enzymatic BACE FRET (fluorescence resonance energy transfer) assay; type: biochemical; details: average IC50, enzyme assay; read-out: BACE 1 FRET assay
# Method in brief: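 Acetate buffer (0.05 M, pH 4.2), 10% DMSO final, 100 uM nonionic detergent genapol. Substrate addition (50 nM FRET peptide) initiates; one-hour incubation; Tris raises pH to neutrality before fluorescence measurement.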
# [2] = test system: Aβ40 in conditioned medium of cells stably expressing Amyloid Precursor Protein (APP); assay: In vitro BACE cell-based assay (Aβ40 in conditioned medium, sandwich ELISA); details: Homo sapiens, read-out: HEK cell assay
# Method in brief: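 Secreted Aβ40 is captured with pAb40 and detected with biotinylated 6E10, read by europium time-resolved fluorescence. IC50 comes from percent inhibition versus concentration.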
# [3] = HEK293, average IC50, HEK cells
# Beta Secretase enzyme (BACE), sequence (P56817 46-501, species assumed): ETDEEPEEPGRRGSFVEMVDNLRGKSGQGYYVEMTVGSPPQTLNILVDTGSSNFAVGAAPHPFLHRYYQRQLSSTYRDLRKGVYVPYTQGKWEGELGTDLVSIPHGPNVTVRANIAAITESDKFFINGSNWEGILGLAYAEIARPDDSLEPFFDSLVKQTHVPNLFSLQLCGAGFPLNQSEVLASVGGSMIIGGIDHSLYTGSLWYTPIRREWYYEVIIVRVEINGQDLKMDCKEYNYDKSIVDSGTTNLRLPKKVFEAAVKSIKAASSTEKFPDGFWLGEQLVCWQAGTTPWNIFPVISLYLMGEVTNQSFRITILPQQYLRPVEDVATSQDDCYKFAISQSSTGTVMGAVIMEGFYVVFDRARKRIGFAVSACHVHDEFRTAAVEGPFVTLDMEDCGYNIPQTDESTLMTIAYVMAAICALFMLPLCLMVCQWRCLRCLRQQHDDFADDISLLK
Compound,IC50 [1],"IC50 [2, 3]","IC50 ([2]; HEK293, average IC50)"
"NC1=N[C@]2(CO1)c1cc(-c3cccnc3F)c(F)cc1Oc1c(F)cc(C3=CCCOC3)cc12 [Example 866, (4R)-7′-(5,6-dihydro-2H-pyran-3-yl)-3′,5′-difluoro-2′-(2-fluoro-3-pyridinyl)spiro[1,3-oxazole-4,9′-xanthen]-2-amine]",62.3 nM,1720 nM,
"CNC(=O)c1ccc(F)c(-c2ccc3c(c2)[C@@]2(COC(N)=N2)c2cc(C4=CCOCC4)cnc2O3)c1 [Example 500, 3-((5S)-2′-amino-3-(3,6-dihydro-2H-pyran-4-yl)spiro[chromeno[2,3-b]pyridine-5,4′-[1,3]oxazol]-7-yl)-4-fluoro-N-methylbenzamide]",11.7 nM,36.8 nM,
"COc1ccncc1-c1ccc2c(c1)[C@@]1(COC(N)=N1)c1cc(Cl)ncc1O2 [Example 652, (5S)-3-chloro-7-(4-methoxy-3-pyridinyl)spiro[chromeno[2,3-c]pyridine-5,4′-[1,3]oxazol]-2′-amine]",1220 nM,2170 nM,
"CC1(C)C[C@@H](c2cc(F)c3c(c2)[C@]2(COC(N)=N2)c2cc(-c4cnccn4)ccc2O3)CCO1 [Example 449, (4S)-2′-((4S)-2,2-dimethyltetrahydro-2H-pyran-4-yl)-4′-fluoro-7′-(2-pyrazinyl)spiro[1,3-oxazole-4,9′-xanthen]-2-amine]",3.7 nM,20 nM,
"CC1(C#Cc2cnc3c(c2)[C@]2(COC(N)=N2)c2cc(-c4ccc(F)c(F)c4)ccc2O3)COC1 [Example 188, (5S)-7-(3,4-difluorophenyl)-3-((3-methyl-3-oxetanyl)ethynyl)spiro[chromeno[2,3-b]pyridine-5,4′-[1,3]oxazol]-2′-amine]",4.5 nM,,86.6 nM
"CC1(C)C[C@@H](c2cnc3c(c2)[C@]2(COC(N)=N2)c2cc(-c4cccc(Cl)c4)ccc2O3)CCO1 [Example 465, (5S)-7-(3-chlorophenyl)-3-((4S)-2,2-dimethyltetrahydro-2H-pyran-4-yl)spiro[chromeno[2,3-b]pyridine-5,4′-[1,3]oxazol]-2′-amine]",1.7 nM,11.1 nM,
"CC(C)(C#N)COc1cc(F)c2c(c1)[C@]1(COC(N)=N1)c1cc(-c3cccnc3F)c(F)cc1O2 [Example 862, 3-(((4S)-2-amino-4′,6′-difluoro-7′-(2-fluoro-3-pyridinyl)spiro[1,3-oxazole-4,9′-xanthen]-2′-yl)oxy)-2,2-dimethylpropanenitrile]",0.3 nM,11 nM,
"CC#Cc1cncc(-c2ccc3c(c2)[C@@]2(COC(N)=N2)c2cc(OC)cc(F)c2O3)c1 [Example 824, (4S)-4′-fluoro-2′-methoxy-7′-(5-(1-propyn-1-yl)-3-pyridinyl)spiro[1,3-oxazole-4,9′-xanthen]-2-amine]",0.2 nM,,20 nM
"NC1=N[C@@]2(CO1)c1cc(-c3cccnc3F)ccc1Oc1c2cc(N2CCC(F)(F)C2)nc1F [Example 918, (S)-3-(3,3-difluoropyrrolidin-1-yl)-1-fluoro-7-(2-fluoropyridin-3-yl)-5′-H-spiro[chromeno[2,3-c]pyridine-5,4′-oxazol]-2′-amine]",0.2 nM,4 nM,
"CC1(COc2cc3c(cc2F)Oc2ccc(-c4cccc(C#N)c4)cc2[C@@]32COC(N)=N2)COC1 [Example 331, 3-((4S)-2-amino-6′-fluoro-7′-((3-methyl-3-oxetanyl)methoxy)spiro[1,3-oxazole-4,9′-xanthen]-2′-yl)benzonitrile]",13.9 nM,,85.5 nM
"NC1=N[C@@]2(CO1)c1cc(-c3cccnc3)ccc1Oc1cnc(NCC(F)(F)F)cc12 [Example 404, (5S)-7-(3-pyridinyl)-N~3~-(2,2,2-trifluoroethyl)spiro[chromeno[2,3-c]pyridine-5,4′-[1,3]oxazole]-2′,3-diamine]",31.3 nM,163 nM,
"NC1=N[C@@]2(CO1)c1cc(OCc3cccnc3)ccc1Oc1ncc(-c3ccnc(F)c3)cc12 [Example 974, (5S)-3-(2-fluoro-4-pyridinyl)-7-(3-pyridinylmethoxy)spiro[chromeno[2,3-b]pyridine-5,4′-[1,3]oxazol]-2′-amine]",110 nM,,2720 nM
